# Assay results: article PMC3325374 (Journal of Medicinal Chemistry, 2012)
# Tested on: MDR1-MDCK cell monolayers
# Assay: MDR1-MDCK monolayer permeability assay
# Format: in vitro ADME
# Conditions: judged from MDR1-MDCK efflux ratio
smiles,measurement,value
N#CCNC(=O)[C@H](Cc1c[nH]cn1)NC(=O)OCc1ccccc1 [Compound 10],P-gp mediated efflux (in words),subject to P-gp mediated efflux
